Consider 15 compounds from patent publication US8007782B2, “Combination bacteriolytic therapy for the treatment of tumors” (priority 2003, dated 2011).

Data set [1] has as its system HCT116 human colorectal cancer cells. Put plainly: Tumorigenicity assay, HCT116 xenografts in nude mice. Format: in vivo. The settings on record: nude mice; for Effect alone: agent alone. An excerpt: (§1) All animal protocols were designed in accordance with the Guide for the Care and Use of Laboratory Animals (NIH Publication 86-23) and were approved by the Johns Hopkins University Institutional Animal Care and Use Committee. Six to eight week old mice were implanted subcutaneously on one flank with 3 to 6 million cancer cells. Establishment of tumors of 150 to 500 mm3 took 8 to 21 days, depending on the cell type. C. novyi-NT spores (300×106) and anti-microtubule agents were generally administered by a single intravenous injection through the tail vein in a total volume of 300 to 500 ul phosphate-buffered saline (PBS). Quantitative assessment of tumor growth was performed by measuring subcutaneous tumor grafts (major and minor axis) using electronic calipers. Tumor volume was calculated using the equation: length×width2×0.5. Progression free survival was defined as the length of time following treatment before any increase in tumor volume was observed. Mice were considered “cured” if no tumor was evident three months after treatment. Animals were weighed at least twice a week and carefully observed for signs of toxicity every day for the first week following treatment and then twice a week thereafter. At least five mice were used for each treatment arm described in the Experimental Results.
The timing, route, and dose of agents are critical for the success of any experimental therapy. When two agents are combined, the number of variables that must be tested increases exponentially. To simplify interpretation of the comparisons between various anti-microtubule agents, pilot studies with representative drugs were performed.
Eighteen agents known to interact with microtubules were each tested in this manner in nude mice harboring xenografts of HCT116 human colorectal cancer cells. At least five mice harboring tumors of 150 to 500 mm3 in size were used for each experimental arm. Two classes of responses were noted. One type of response was characterized by a rapid hemorrhagic necrosis, observed only with agents that inhibited microtubule […] (FIG. 1A, B). The other type of response was characterized by a slow regression, observed with agents that stabilized microtubules (FIG. 2A, B).

Data set [2] can be described thus: Mortality following COBALT. The class given is in vivo, nude mice. To be noted: deaths within one week, pooled xenograft models.
From the text: as §1
(§2) This toxicity was observed only when the combination of C. novyi-NT spores and the drugs was administered and not with either the bacteria or the drugs alone. […] Though major tumor regressions were common, few mice died as a result of therapy (Table 2) No deaths occurred after treatment with the microtubule stabilizers plus C. novyi-NT, while 4% to 8% of mice treated with microtubule destabilizers plus C. novyi-NT died. The only other toxicity observed was transient weight loss (Table 3). Mice treated with the drugs alone lost ˜5 to 10% of their body weight within 7 days, while weight loss after treatment with C. novyi-NT plus these drugs varied from 8% to 18%. All weights recovered to pre-treatment levels within two weeks.

A short description of data set [3]: Weight loss after COBALT. The class given is in vivo, nude mice. The settings on record: drug dose 24.0 mg/kg; maximum average weight loss relative to weight one day prior to treatment; HCT116 xenografts.
From the text: as §1, §2

Setting [4] is: 15 mg/kg × 1 (iv) with 3×108 C. novyi-NT spores iv.
The mark [5] stands for this setting: 5 mg/kg × 1 (ip) with 3×108 C. novyi-NT spores iv.
Where [6] appears, read: 10 mg/kg × 1 (ip) with 3×108 C. novyi-NT spores iv.
The mark [7] stands for this setting: 20 mg/kg × 1 (iv) with 3×108 C. novyi-NT spores iv.

Where a SMILES comes first, the peptide text is derived from it. [ ]: non-standard residue; d: D form. The star is where a group is joined. Dolaproine = CO[C@@H]([C@@H]1CCCN1)[C@@H](C)C(=O)O; Dil = CC[C@H](C)[C@H](NC)[C@@H](CC(=O)O)OC; NMe2Val = CC(C)[C@@H](C(=O)*)N(C)C

With `C=CC=CC(C)C(OC(N)=O)C(C)C(O)C(C)CC=CC(C)C(O)C(C)C=CC(O)CC1OC(=O)C(C)C(O)C1C` (single isomer, unassigned; (+)) [(+)-14-normethyldiscodermolide], the “Effect with C. novyi-NT” value in data set [1] (setting [4]) is reported as “+”. The Effect alone result in data set [1] (15 mg/kg × 1 (iv)) is reported as “+”.
With `O=C(Nc1ccncc1)C(=O)c1cn(Cc2ccc(Cl)cc2)c2ccccc12` [D-24851], the “Effect with C. novyi-NT” value in data set [1] (25 mg/kg × 1 (ip) with 3×108 C. novyi-NT spores iv) and in data set [1] (100 mg/kg × 1 (ip) with 3×108 C. novyi-NT spores iv) was “+” in each case. Besides, the Effect alone in data set [1] (25 mg/kg × 1 (ip)) and in data set [1] (100 mg/kg × 1 (ip)) was 0 each time.
As for `CC[C@H](C)[C@@H]([C@@H](CC(=O)N1CCC[C@H]1[C@H](OC)[C@@H](C)C(=O)NCCc1ccccc1)OC)N(C)C(=O)[C@@H](NC(=O)[C@H](C(C)C)N(C)C)C(C)C` [auristatin PE], the “Effect with C. novyi-NT” value in data set [1] (2 (2.0) mg/kg × 1 (iv) with 3×108 C. novyi-NT spores iv) is “+”. In data set [1] (2 (2.0) mg/kg × 1 (iv)), this compound registered an Effect alone of 0.
As to `CC[C@H](C)[C@@H]([C@@H](CC(=O)N1CCC[C@H]1[C@H](OC)[C@@H](C)C(=O)N[C@@H](Cc1ccccc1)C(=O)OC)OC)N(C)C(=O)[C@@H](NC(=O)[C@H](C(C)C)N(C)C)C(C)C` [auristatin PHE] (NMe2Val-V[Dil][Dolaproine]F-OMe), the “Effect with C. novyi-NT” value in data set [1] (0.2 mg/kg × 1 (iv) with 3×108 C. novyi-NT spores iv) is “+”. The compound also came in with an Effect alone in data set [1] (0.2 mg/kg × 1 (iv)) of 0.
Consider `COc1cc2c(c(OC)c1OC)-c1ccc(OC)c(=O)cc1[C@@H](NC(C)=O)CC2` [colchicine], for which the figures for the “Effect with C. novyi-NT” value in data set [1] (setting [5]), in data set [1] (setting [6]) and in data set [1] (20 mg/kg × 1 (ip) with 3×108 C. novyi-NT spores iv) were “+”, “+” and “++ (10% to 50% shrinkage in tumor volume relative to pre-treatment size)”, respectively. Besides, the Effect alone entry was “+” in data set [1] (5 mg/kg × 1 (ip)), “+” in data set [1] (10 mg/kg × 1 (ip)) and “++ (10% to 50% shrinkage in tumor volume relative to pre-treatment size)” in data set [1] (20 mg/kg × 1 (ip)).
Consider `COc1ccc(/C=C\c2cc(OC)c(OC)c(OC)c2)cc1OP(=O)(O)O` [combretastatin A4P], for which the “Effect with C. novyi-NT” value in data set [1] (50 mg/kg × 1 (ip) with 3×108 C. novyi-NT spores iv) and in data set [1] (200 mg/kg × 1 (ip) with 3×108 C. novyi-NT spores iv) was “+” in each case. Further, the results for the Effect alone in data set [1] (50 mg/kg × 1 (ip)) and in data set [1] (200 mg/kg × 1 (ip)) were 0 and “+”, respectively.
For `C=C/C=C\[C@H](C)[C@H](OC(N)=O)[C@@H](C)[C@H](O)[C@@H](C)C/C(C)=C\[C@H](C)[C@@H](O)[C@@H](C)/C=C\[C@@H](O)C[C@@H]1OC(=O)[C@H](C)[C@@H](O)[C@H]1C` [discodermolide], the “Effect with C. novyi-NT” value in data set [1] (setting [4]) and in data set [1] (setting [7]) was “++++ (>20% cures)” in each case. In addition, the Effect alone entry in data set [1] (15 mg/kg × 1 (iv)) and in data set [1] (20 mg/kg × 1 (iv)) was “++ (10% to 50% shrinkage in tumor volume relative to pre-treatment size)” in each case.
On to `CC[C@H](C)[C@@H]([C@@H](CC(=O)N1CCC[C@H]1[C@H](OC)[C@@H](C)C(=O)N[C@@H](Cc1ccccc1)c1nccs1)OC)N(C)C(=O)[C@@H](NC(=O)[C@H](C(C)C)N(C)C)C(C)C` [dolastatin 10], for which the “Effect with C. novyi-NT” value in data set [1] (0.30 mg/kg × 1 (iv) with 3×108 C. novyi-NT spores iv) and in data set [1] (0.45 mg/kg × 1 (iv) with 3×108 C. novyi-NT spores iv) was “+++ (>50% shrinkage in tumor volume relative to pre-treatment size)” in each case. Also, the Effect alone in data set [1] (0.30 mg/kg × 1 (iv)) and in data set [1] (0.45 mg/kg × 1 (iv)) was 0 throughout.
For `C/C(=C\c1csc(C)n1)[C@@H]1C[C@@H]2O[C@]2(C)CCC[C@H](C)[C@H](O)[C@@H](C)C(=O)C(C)(C)[C@@H](O)CC(=O)O1` [epothilone B], the “Effect with C. novyi-NT” value in data set [1] (25 mg/kg QD × 4 (ip) with 3×108 C. novyi-NT spores) is on record as “+”.
`COc1ccc2c(c1OC)C(=O)O[C@@H]2[C@H]1c2c(cc3c(c2OC)OCO3)CCN1C` [noscapine]: the “Effect with C. novyi-NT” value in data set [1] (50 mg/kg × 1 (iv) with 3×108 C. novyi-NT spores iv) and in data set [1] (70 mg/kg × 1 (iv) with 3×108 C. novyi-NT spores iv) was “+” throughout. In addition, the Effect alone in data set [1] (50 mg/kg × 1 (iv)) and in data set [1] (70 mg/kg × 1 (iv)) was 0 throughout.
Turning to `CC(=O)O[C@H]1C(=O)[C@@]2(C)[C@H]([C@H](OC(=O)c3ccccc3)[C@]3(O)C[C@H](OC(=O)[C@H](O)[C@@H](NC(=O)c4ccccc4)c4ccccc4)C(C)=C1C3(C)C)[C@]1(OC(C)=O)CO[C@@H]1C[C@@H]2O` [paclitaxel], the “Effect with C. novyi-NT” value was 0 in data set [1] (setting [4]) and “+” in data set [1] (30 mg/kg × 1 (iv) with 3×108 C. novyi-NT spores iv). For the same compound, the Effect alone in data set [1] (15 mg/kg × 1 (iv)) and in data set [1] (30 mg/kg × 1 (iv)) was 0 in each case.
With `CC[C@]1(O)C[C@@H]2CN(CCc3c([nH]c4ccccc34)[C@@](C(=O)OC)(c3cc4c(cc3OC)N(C)[C@H]3[C@@](O)(C(=O)OC)[C@H](OC(C)=O)[C@]5(CC)C=CCN6CC[C@]43[C@@H]65)C2)C1` [vinblastine], the “Effect with C. novyi-NT” value is on record as 0 in data set [1] (setting [5]) and “+” in data set [1] (setting [6]). Further, the values for the Effect alone in data set [1] (5 mg/kg × 1 (ip)) and in data set [1] (10 mg/kg × 1 (ip)) were 0 and “+”, respectively.
For `CC[C@]1(O)C[C@H]2CN(CCc3c([nH]c4ccccc34)[C@@](C(=O)OC)(c3cc4c(cc3OC)N(C=O)[C@H]3[C@@](O)(C(=O)OC)[C@H](OC(C)=O)[C@]5(CC)C=CCN6CC[C@]43[C@@H]65)C2)C1` [vincristine], the “Effect with C. novyi-NT” value in data set [1] (setting [5]) is given as 0; in data set [1] (setting [6]), “+”. In addition, the Effect alone in data set [1] (5 mg/kg × 1 (ip)) and in data set [1] (10 mg/kg × 1 (ip)) was 0 each time.
For the compound `CCC1=C[C@@H]2CN(C1)Cc1c([nH]c3ccccc13)[C@@](C(=O)OC)(c1cc3c(cc1OC)N(C)[C@H]1[C@@](O)(C(=O)OC)[C@H](OC(C)=O)[C@]4(CC)C=CCN5CC[C@]31[C@@H]54)C2` [vinorelbine], the “Effect with C. novyi-NT” value in data set [1] (16 mg/kg × 1 (iv) with 3×108 C. novyi-NT spores iv) is “++ (10% to 50% shrinkage in tumor volume relative to pre-treatment size)”; in data set [1] (setting [7]), “+++ (>50% shrinkage in tumor volume relative to pre-treatment size)”; in data set [1] (24 mg/kg × 1 (iv) with 3×108 C. novyi-NT spores iv), “+++ (>50% shrinkage in tumor volume relative to pre-treatment size)”. Besides, the Effect alone result in data set [1] (16 mg/kg × 1 (iv)), in data set [1] (20 mg/kg × 1 (iv)) and in data set [1] (24 mg/kg × 1 (iv)) was “+” throughout. Also, the “# dead (treatment-related deaths)” value in data set [2] (drug dose 16.0 mg/kg), in data set [2] (drug dose 20.0 mg/kg) and in data set [2] (drug dose 24.0 mg/kg) was 0 each time. Besides, the “Weight Loss (%)” value in data set [3] was determined as 8.3%.
Regarding arsenic trioxide, the “Effect with C. novyi-NT” value in data set [1] (setting [6]) is listed as “+”. In data set [1] (10 mg/kg × 1 (ip)), this compound came in with an Effect alone of 0.
